Converted amounts (≈) assume the structure as drawn. Where two headings read alike, the source gives them in different places.
Key:
[1] = Solubility of EW-7197 at various pH values; assay type: physicochemical; conditions: thermodynamic from solid
Excerpt: In order to use EW-7197 for treating or preventing TFG-β signaling related ocular diseases, postsurgical peritoneal adhesions, postsurgical anastomotic strictures, hypertrophic scar, or keloid in human, formulation development of an aqueous solution containing appropriate amounts of EW-7197 is needed.

[2] = tested on: 4T1 orthotopic-grafted mice; conditions: cited from earlier work
[3] = tested on: liver of bile duct ligated rats; conditions: cited from earlier work
[4] = Photostability of EW-7197 in buffer solutions (ultraviolet and visible light); assay type: physicochemical; conditions: solution left in a room for a whole day under fluorescent lighting (about 1000 lx per hour)
Method: The formulations used in the photostability test are the same formulations (excluding A13, A16, A19, and A22) used for evaluation of thermal stability shown in Table 4. After preparation, each formulation was filtered. About 3 mL of the filtrate was filled in a glass ampule, and illuminated with ultraviolet light of 50 W·h/m^2 and visible light of 300,000 lx·hr by a photostability test chamber. […] Generally, illumination under white fluorescent lighting is about 1000 lx per hour. […] Therefore, EW-7197 needs to be stored in light shielded conditions.

[5] = tested on: lung of bleomycin-treated mice; conditions: cited from earlier work
[6] = Solubility of EW-7197 in PEG/poloxamer formulations (5° C. and 25° C.); assay type: physicochemical; conditions: formulations containing 25% PEG4000 and 10% poloxamer 407
Method: After confirming that the formulation was suspended at each temperature, the suspension was filtered. The EW-7197 content of the filtrate was measured by HPLC.

[7] = tested on: kidney of mice with unilateral ureteral obstruction; conditions: cited from earlier work
[8] = tested on: mouse B16 melanoma model; conditions: cited from earlier work; for progression of melanoma: mouse B16 melanoma model, with enhanced CTL responses
[9] = tested on: CML-affected mice; conditions: combined with ponatinib, compared to ponatinib alone; cited from earlier work
[10] = tested on: rat esophagus; conditions: after SEMS placement in the rat esophagus; cited from earlier work
[11] = Solubility of EW-7197 with various solubilizing agents (4° C. and 25° C.); assay type: physicochemical; conditions: for EW-7197 dissolved: 1% of each surfactant, boric acid/sodium borate pH7.5
Excerpt: The buffer solution used in this study was 0.9% boric acid/0.1% sodium borate (pH7.5). […] After confirming that the formulations were suspended at each temperature, each formulation was filtered.

[12] = tested on: liver of CCl4-treated mice; conditions: cited from earlier work
[13] = tested on: MDA-MB-231-xenografted mouse model; conditions: cited from earlier work
[14] = Effect of metal ion on thermal stability of EW-7197 (40° C.); assay type: physicochemical; conditions: 100 ppm aluminum ions or iron ions, with or without EDTA, PE bottles
Method: After the preparation of each formulation, the formulation was filtered. The filtrate was filled into a PE bottle, and stored in a thermostatic chamber (40° C.).
In this study, the final concentration of aluminum ions or iron ions was 100 ppm, and the PE ophthalmic bottles were used as containers.

[15] = tested on: mouse model of ulcerative colitis; conditions: cited from earlier work
[16] = tested on: Col8a2 knock-in mice; conditions: cited from earlier work
[17] = tested on: MMTV/c-Neu mice; conditions: cited from earlier work
[18] = tested on: adhesion bands mouse model; conditions: cited from earlier work
[19] = tested on: peritoneal adhesions rat model; conditions: dose-dependent; cited from earlier work
[20] = tested on: rabbit PVR trauma model; conditions: intravitreal injection; cited from earlier work
[21] = tested on: laser-induced CNV in retina of mice; conditions: day 14 after laser-induced CNV formation, vs PBS treated control (p<0.05, n=5 per group); cited from earlier work
[22] = tested on: human lens epithelial cells line SRA01/04; conditions: SRA01/04 cells, nontoxic concentrations; cited from earlier work
[23] = tested on: TFG-β2-treated perfused human anterior segments; conditions: cited from earlier work
[24] = tested on: rabbit GFS model; conditions: cited from earlier work
[25] = tested on: TFG-β2-treated trabecular meshwork cell cultures; conditions: cited from earlier work
[26] = tested on: rabbit model of trabeculectomy; conditions: cited from earlier work

## Cc1cccc(-c2[nH]c(CNc3ccccc3F)nc2-c2ccc3ncnn3c2)n1 [EW-7197, 2-fluoro-N-((5-(6-methylpyridin-2-yl)-4-([1,2,4]triazolo[1,5-a]pyridin-6-yl)-1H-imidazol-2-yl)methyl)aniline]
[1]; 0.1N NaOH, pH 12.86, aqueous buffer, pH 12.86, 0.1N NaOH, pH after equilibration 12.53, read-out: Solubility Average (n = 2)
  solubility: 437 µg/mL (≈ 1090 µM)
[1]; 0.1N NaOH, pH 12.86, aqueous buffer, pH 12.86, 0.1N NaOH, pH after equilibration 12.53, read-out: Solubility Trial 1
  solubility: 396 µg/mL (≈ 991 µM)
[1]; 0.1N NaOH, pH 12.86, aqueous buffer, pH 12.86, 0.1N NaOH, pH after equilibration 12.53, read-out: Solubility Trial 2
  solubility: 478 µg/mL (≈ 1200 µM)
[1]; citrate buffer, pH 3, aqueous buffer, pH 3.0, Citrate buffer, pH after equilibration 3.30, read-out: Solubility Average (n = 2)
  solubility: 1010 µg/mL (≈ 2540 µM)
[1]; citrate buffer, pH 3, aqueous buffer, pH 3.0, Citrate buffer, pH after equilibration 3.30, read-out: Solubility Trial 1
  solubility: 1000 µg/mL (≈ 2500 µM)
[1]; citrate buffer, pH 3, aqueous buffer, pH 3.0, Citrate buffer, pH after equilibration 3.30, read-out: Solubility Trial 2
  solubility: 1030 µg/mL (≈ 2580 µM)
[1]; citrate buffer, pH 4, aqueous buffer, pH 4.0, Citrate buffer, pH after equilibration 4.16, read-out: Solubility Average (n = 2)
  solubility: 105 µg/mL (≈ 263 µM)
[1]; citrate buffer, pH 4, aqueous buffer, pH 4.0, Citrate buffer, pH after equilibration 4.16, read-out: Solubility Trial 1
  solubility: 110 µg/mL (≈ 275 µM)
[1]; citrate buffer, pH 4, aqueous buffer, pH 4.0, Citrate buffer, pH after equilibration 4.16, read-out: Solubility Trial 2
  solubility: 100 µg/mL (≈ 250 µM)
[1]; citrate buffer, pH 5, aqueous buffer, pH 5.0, Citrate buffer, pH after equilibration 4.90, read-out: Solubility Average (n = 2)
  solubility: 20 µg/mL (≈ 50.1 µM)
[1]; citrate buffer, pH 5, aqueous buffer, pH 5.0, Citrate buffer, pH after equilibration 4.90, read-out: Solubility Trial 1
  solubility: 19 µg/mL (≈ 47.6 µM)
[1]; citrate buffer, pH 5, aqueous buffer, pH 5.0, Citrate buffer, pH after equilibration 4.90, read-out: Solubility Trial 2
  solubility: 21 µg/mL (≈ 52.6 µM)
[1]; hydrochloric acid buffer, pH 1.2, simulated gastric fluid, pH 1.2, Hydrochloric acid buffer, pH after equilibration 2.81, read-out: Solubility Average (n = 2)
  solubility: 25000 µg/mL (≈ 62700 µM)
[1]; hydrochloric acid buffer, pH 1.2, simulated gastric fluid, pH 1.2, Hydrochloric acid buffer, pH after equilibration 2.81, read-out: Solubility Trial 1
  solubility: 25100 µg/mL (≈ 62700 µM)
[1]; hydrochloric acid buffer, pH 1.2, simulated gastric fluid, pH 1.2, Hydrochloric acid buffer, pH after equilibration 2.81, read-out: Solubility Trial 2
  solubility: 25000 µg/mL (≈ 62700 µM)
[1]; hydrochloric acid buffer, pH 2, simulated gastric fluid, pH 2.0, Hydrochloric acid buffer, pH after equilibration 2.97, read-out: Solubility Average (n = 2)
  solubility: 2900 µg/mL (≈ 7270 µM)
[1]; hydrochloric acid buffer, pH 2, simulated gastric fluid, pH 2.0, Hydrochloric acid buffer, pH after equilibration 2.97, read-out: Solubility Trial 1
  solubility: 2930 µg/mL (≈ 7340 µM)
[1]; hydrochloric acid buffer, pH 2, simulated gastric fluid, pH 2.0, Hydrochloric acid buffer, pH after equilibration 2.97, read-out: Solubility Trial 2
  solubility: 2880 µg/mL (≈ 7210 µM)
[1]; phosphate buffer, pH 6, aqueous buffer, pH 6.0, Phosphate buffer, pH after equilibration 5.96, read-out: Solubility Average (n = 2)
  solubility: 12 µg/mL (≈ 30 µM)
[1]; phosphate buffer, pH 6, aqueous buffer, pH 6.0, Phosphate buffer, pH after equilibration 5.96, read-out: Solubility Trial 1
  solubility: 12 µg/mL (≈ 30 µM)
[1]; phosphate buffer, pH 6, aqueous buffer, pH 6.0, Phosphate buffer, pH after equilibration 5.96, read-out: Solubility Trial 2
  solubility: 12 µg/mL (≈ 30 µM)
[1]; phosphate buffer, pH 6.8, aqueous buffer, pH 6.8, Phosphate buffer, pH after equilibration 6.79, read-out: Solubility Average (n = 2)
  solubility: 12 µg/mL (≈ 30 µM)
[1]; phosphate buffer, pH 6.8, aqueous buffer, pH 6.8, Phosphate buffer, pH after equilibration 6.79, read-out: Solubility Trial 1
  solubility: 11 µg/mL (≈ 27.5 µM)
[1]; phosphate buffer, pH 6.8, aqueous buffer, pH 6.8, Phosphate buffer, pH after equilibration 6.79, read-out: Solubility Trial 2
  solubility: 13 µg/mL (≈ 32.5 µM)
[1]; phosphate buffer, pH 7.4, aqueous buffer, pH 7.4, Phosphate buffer, pH after equilibration 7.32, read-out: Solubility Average (n = 2)
  solubility: 13 µg/mL (≈ 32.5 µM)
[1]; phosphate buffer, pH 7.4, aqueous buffer, pH 7.4, Phosphate buffer, pH after equilibration 7.32, read-out: Solubility Trial 1
  solubility: 13 µg/mL (≈ 32.5 µM)
[1]; phosphate buffer, pH 7.4, aqueous buffer, pH 7.4, Phosphate buffer, pH after equilibration 7.32, read-out: Solubility Trial 2
  solubility: 13 µg/mL (≈ 32.5 µM)
[1]; water / aqueous solution, aqueous buffer, in an acceptable pH range for ophthalmic solution, read-out: water solubility
  solubility: 10 to 20 µg/mL (≈ 25 to 50.1 µM)
[1]; water, pH 7.17, water, Water, pH after equilibration 7.17, read-out: Solubility Average (n = 2)
  solubility: 9 µg/mL (≈ 22.5 µM)
[1]; water, pH 7.17, water, Water, pH after equilibration 7.17, read-out: Solubility Trial 1
  solubility: 9 µg/mL (≈ 22.5 µM)
[1]; water, pH 7.17, water, Water, pH after equilibration 7.17, read-out: Solubility Trial 2
  solubility: 9 µg/mL (≈ 22.5 µM)
[2]
  CTL activity: enhanced
  Smad/TGF-β signaling, cell migration, invasion, and lung metastasis: inhibits
[3]
  expression of collagen, aSMA, fibronectin, 4-hydroxy-2,3-nonenal, and integrins: decreases
[4]
  EW-7197 decomposed by light: 1-5%
[5]
  expression of collagen, aSMA, fibronectin, 4-hydroxy-2,3-nonenal, and integrins: decreases
[6]
  solubility of EW-7197: about 0.125%
[7]
  expression of collagen, aSMA, fibronectin, 4-hydroxy-2,3-nonenal, and integrins: decreases
[8]
  progression of melanoma: suppress
[8]; oral EW-7197 2.5 mg/kg once daily vs LY-2157299 75 mg/kg bid
  efficacy compared with LY-2157299: more effective
[9]
  disease relapse and survival: significantly delays disease relapse and prolongs survival
[10]
  granulation tissue formation: suppresses
[11]; 4° C.
  EW-7197 dissolved: about 0.01%
[11]; 25° C.
  EW-7197 dissolved: about 0.02%
[11]; formulation with 1% tyloxapol, 4% PEG4000, and 2% niacinamide
  upper limit of concentration of EW-7197: about 0.015%
[12]
  expression of collagen, aSMA, fibronectin, 4-hydroxy-2,3-nonenal, and integrins: decreases
[13]
  paclitaxel-induced epithelial-mesenchymal transition (EMT) and cancer stem-like cells properties: suppresses
[14]
  effect of metal ions on thermal stability of EW-7197: neither aluminum ions nor iron ions affected the thermal stability
[15]
  clinical symptoms of colitis: ameliorates
  excessive collagen deposition and fibrosis in colitis tissues: inhibits
  overexpression of proinflammatory and profibrotic genes: suppresses
[16]; 0.004%, 0.02%, and 0.1%, dose-dependent
  fibronectin expression: suppresses
[16]; 0.02% eye drop administration
  decrease in corneal endothelial cells and/or corneal endothelial disorders represented by overexpression of ECM: effectively suppresses
[17]
  Smad/TGF-β signaling, cell migration, invasion, and lung metastasis: inhibits
[18]
  frequency and stability of adhesion bands: prevents
[19]
  incidence, quality, and tenacity of peritoneal adhesions: reduces

## c1ccc(-c2[nH]ncc2-c2ccnc3ccccc23)nc1 [LY-364947]
[20]
  PVR development and subsequent tractional retinal detachment: prevents

## Cc1cccc(-c2nn3c(c2-c2ccnc4ccc(C(N)=O)cc24)CCC3)n1 [LY-2157299, reference compound]
[21]
  neovascular area in retina: reduces
[8]
  progression of melanoma: suppress

## Cc1ccc(=O)n(-c2ccccc2)c1 [Pirfenidone]
[22]
  TGF-β-induced proliferation, migration, and EMT: inhibits

## NC(=O)c1ccc(-c2nc(-c3ccc4c(c3)OCO4)c(-c3ccccn3)[nH]2)cc1 [SB-431542]
[23]
  level of fibronectin: reduces
[24]
  post-surgical scarring and fibrosis after GFS: decreases
[25]
  levels of fibronectin and plasminogen activator inhibitor-1 (PAI-1): reduces

## Cc1cccc(-c2[nH]c(C(C)(C)C)nc2-c2ccc3c(c2)OCO3)n1 [SB-505124]
[24]
  ocular scarring following GFS: prevents
[26]
  TFG-β activity: inhibited
  bleb survival: promoted

Reference: US20230047393A1 (EWHA DrugDesignHouse Co.,Ltd., priority 2021, published 2023)
